Measurements as given in PMC8485799, “Synthesis and Antiprotozoal Profile of 3,4,5‐Trisubstituted Isoxazoles” (ChemistryOpen, 2021).

Assays:
[1] = system: epimastigote forms of Trypanosoma cruzi (Y strain); test: Antiproliferative assay (XTT), epimastigote forms, 96 h; type: cell-based; details: for IC50: Trypanosoma cruzi, epimastigote form, 96 h, XTT, read-out: T. cruzi IC50; for SIT-F, selectivity index (Fibroblast CC50/T. cruzi IC50): fibroblast vs epimastigote; for SIT-M, selectivity index (Macrophages CC50/T. cruzi IC50): macrophages vs epimastigote
Method: (§1) The antiproliferative activity was determined in promastigote forms of Leishmania amazonensis (WHOM/BR/75/JOSEFA strain) and epimastigote forms of Trypanosoma cruzi (Y strain). The promastigote forms of L. amazonensis were cultured in Warren medium (brain heart infusion, hemin, and folic acid; pH 7.4) supplemented with 10 % fetal bovine serum (FBS) at 25 °C. The epimastigote forms of T.cruzi were cultured in LIT medium (liver infusion tryptose; hemin, and folic acid; pH 7.4) supplemented with 10 % FBS at 28 °C. Cytotoxicity in mammalian cells was determined in fibroblast line (L929) and macrophages (J774 A1). Fibroblasts were cultured in DMEM medium (pH 7.2) supplemented with 10 % FBS at 37 °C in a 5 % CO2 atmosphere. Macrophages were cultured in RPMI‐1640 (pH 7.2) medium supplemented with 10 % FBS at 37 °C in a 5 % CO2 atmosphere.
(§2) Stock solutions of the compounds were prepared in DMSO and then diluted in the respective medium.
(§3) Promastigote forms (1×10^6 parasites.mL^−1) were cultured in 96‐well plates in the presence and absence of different concentrations of compounds diluted in Warren medium supplemented with 10 % FBS and incubated for 72 h. The epimastigote forms (1×10^6 parasites.mL^−1) were cultured in 96‐well plates in the presence and absence of different concentrations of compounds diluted in LIT medium supplemented with 10 % FBS and incubated for 96 h. After treatment, the parasites were incubated with a solution of 2,3‐bis(2‐methoxy‐4‐nitro‐5‐sulfophenyl)‐2H‐tetrazolium‐5‐carboxanilide (XTT; 0.5 mg.mL^−1) and phenazine methanesulfonate activator (PMS; 0.06 mg.mL^−1) in PBS for 4 h. Then, the absorbance was read in a microplate reader (Bio Tek‐Power Wave XS) at 450 nm.[20] The percentage of viable parasites was calculated in relation to the control in order to determine the concentration that inhibits 50 % of the protozoa (IC50). The control groups of each experiment received the same experimental conditions as the treated groups (cell concentration used, temperature, and incubation time).

[2] = Cytotoxicity assay in mammalian cells (MTT), macrophages, 48 h; type: cell-based; details: mouse, J774 A1 macrophages, pH 7.2; 50 % inhibition of macrophages growth, 48 h, MTT
Method: as §1, §2
(§4) Fibroblast cell (2.5×10^5 cells.mL^−1) suspensions were prepared in DMEM medium supplemented with 10 % FBS and added to 96‐well plates. Then, the plates were incubated at 37 °C in a CO2 atmosphere for 24 h to obtain confluent cell growth. After incubation, cells were treated with different concentrations of compounds diluted in DMEM for 72 h or left untreated. Macrophage (5×10^5 cells.mL^−1) suspensions were prepared in RPMI‐1640 medium supplemented with 10 % FBS and added to 96‐well plates. Then, the plates were incubated at 37 °C in a CO2 atmosphere for 24 h to obtain confluent cell growth. After incubation, cells were treated with different concentrations of compounds diluted in RPMI‐1640 for 48 h or left untreated. After treatment, the medium was removed, and cells were incubated with MTT (2 mg.mL^−1) for 4 h. Then, DMSO was added for solubilization of the formazan and analyzed with a reading microplate reader (BIO‐TEK PowerWave XS spectrophotometer) at […].[20] The percentage of viable cells was calculated in relation to the untreated control group to determine the cytotoxic concentration in 50 % of the cells (CC50). The control groups of each experiment received the same experimental conditions as the treated groups (cell concentration used, temperature, CO2, and incubation time).

[3] = Cytotoxicity assay in mammalian cells (MTT), fibroblasts, 72 h; type: cell-based; details: mouse, L929 fibroblast cells, pH 7.2; 50 % inhibition of fibroblast growth, 72 h, MTT
Method: as §1, §2, §4

[4] = system: promastigote forms of Leishmania amazonensis (WHOM/BR/75/JOSEFA strain); test: Antiproliferative assay (XTT), promastigote forms, 72 h; type: cell-based; details: for IC50: Leishmania amazonensis, promastigote form, 72 h, XTT, read-out: L. amazonensis IC50; for SIL-F, selectivity index (Fibroblast CC50/L. amazonensis IC50): fibroblast vs promastigote; for SIL-M, selectivity index (Macrophages CC50/L. amazonensis IC50): macrophages vs promastigote
Method: as §1, §2, §3

Row | Structure (SMILES) | IC50 [1] | melting point | CC50 at 48 h [2] | CC50 at 72 h [3] | IC50 [4] | SIL-F, selectivity index (Fibroblast CC50/L. amazonensis IC50) [4] | SIL-M, selectivity index (Macrophages CC50/L. amazonensis IC50) [4] | SIT-F, selectivity index (Fibroblast CC50/T. cruzi IC50) [1] | SIT-M, selectivity index (Macrophages CC50/T. cruzi IC50) [1]
1 | NNC(=O)c1noc(-c2ccc(F)cc2)c1CNc1ccc(Cl)cc1 [3 cb] | > 200 µM | 178.1 to 181.2 °C | 694 ± 10.7 µM | 802 ± 11.4 µM | 172 ± 10.4 µM | 4.67 | 4.04 |  | 
2 | COc1ccc(NCc2c(C(=O)NN)noc2-c2ccc(F)cc2)cc1 [3 cc] | 65.3 ± 3.6 µM | 171.1 to 173.6 °C | 150 ± 4.4 µM | 166 ± 9.6 µM | 59.2 ± 5.7 µM | 2.80 | 2.53 | 2.54 | 2.29
3 | NNC(=O)c1noc(-c2ccc(Cl)cc2)c1CNc1ccccc1 [3 da] | 27.9 ± 2.3 µM | 202.8 to 205.6 °C | 257 ± 6.8 µM | 305 ± 11.4 µM | 23.1 ± 1.5 µM | 13.21 | 11.12 | 10.93 | 9.20
4 | NNC(=O)c1noc(-c2ccc(Cl)cc2)c1CNc1ccc(Cl)cc1 [3 db] | 55.7 ± 10.2 µM | 175.9 to 177.8 °C | 336 ± 5.1 µM | 381 ± 4.2 µM | 59.1 ± 4.6 µM | 6.44 | 5.68 | 6.84 | 6.03
5 | COc1ccc(NCc2c(C(=O)NN)noc2-c2ccc(Cl)cc2)cc1 [3 dc] | 49.5 ± 2.9 µM | 157 to 158.8 °C | 210 ± 3.5 µM | 310 ± 8.9 µM | 55.8 ± 3.9 µM | 5.55 | 3.76 | 6.25 | 4.24
6 | O=C(N/N=C/c1ccccc1)c1noc(-c2ccc([N+](=O)[O-])cc2)c1CNc1ccccc1 [4 aa, 3‐[(2E)‐N'‐(Benzylidene)hydrazinecarbonyl]‐4‐(phenyl)aminomethyl‐5‐(4‐nitrophenyl)isoxazole] | 35.1 ± 4.6 µM | 92.6 to 94.4 °C | 100 ± 6 µM | 118 ± 7.3 µM | 40.7 ± 3.2 µM | 2.90 | 2.47 |  | 2.86
7 | O=C(N/N=C/c1ccccc1)c1noc(-c2ccc([N+](=O)[O-])cc2)c1CNc1ccc(Cl)cc1 [4 ab] | 147 ± 10.7 µM | 177.6 to 179 °C | 287.4 ± 2.3 µM | 398 ± 6.9 µM | 133 ± 8.8 µM | 3.01 | 2.18 | 2.71 | 1.96
8 | O=C(N/N=C/c1ccccc1)c1noc(-c2ccccc2)c1CNc1ccccc1 [4 ba] | 69.6 ± 3.9 µM | 169.9 to 172 °C | 385.6 ± 3.2 µM | 409 ± 7.8 µM | 76.8 ± 8.7 µM | 5.32 | 5.02 | 5.87 | 5.54
9 | O=C(N/N=C/c1ccccc1)c1noc(-c2ccccc2)c1CNc1ccc(Cl)cc1 [4 bb] | 27 ± 1.1 µM | 188.4 to 190.1 °C | 305 ± 7.4 µM | 322 ± 9.7 µM | 27.8 ± 0.7 µM | 11.57 | 10.98 | 11.91 | 11.30
10 | COc1ccc(NCc2c(C(=O)N/N=C/c3ccccc3)noc2-c2ccccc2)cc1 [4 bc] | 26.7 ± 3.9 µM | 197.6 to 199.6 °C | 176 ± 6.6 µM | 210 ± 4.7 µM | 21.5 ± 0.8 µM | 9.75 | 8.20 | 7.85 | 6.61
11 | O=C(N/N=C/c1ccccc1)c1noc(-c2ccc(F)cc2)c1CNc1ccccc1 [4 ca] | 149 ± 10.3 µM | 157.7 to 159.6 °C | 784 ± 10.6 µM | 814 ± 13.5 µM | 135 ± 11.4 µM | 6.04 | 5.83 | 5.47 | 5.29
12 | O=C(N/N=C/c1ccccc1)c1noc(-c2ccc(F)cc2)c1CNc1ccc(Cl)cc1 [4 cb] | 98.7 ± 10.1 µM | 167.9 to 170.5 °C | 365 ± 8.7 µM | 381 ± 6.9 µM | 87.3 ± 6.4 µM | 4.37 | 4.18 | 3.86 | 3.69
13 | COc1ccc(NCc2c(C(=O)N/N=C/c3ccccc3)noc2-c2ccc(F)cc2)cc1 [4 cc] | 78.6 ± 7.4 µM | 181.7 to 185.5 °C | 300 ± 8.9 µM | 308 ± 9.8 µM | 56.3 ± 8.5 µM | 5.46 | 5.32 | 3.91 | 3.81
